Results as given in paper PMC7478165, “Derivatisation of parthenolide to address chemoresistant chronic lymphocytic leukaemia” (MedChemComm, 2019).

Key:
MEC1 CLL cell line [1] = assay: alamarBlue assay, in vitro antileukaemic activity against MEC1 CLL cell line; format: cell-based; settings: for LipE pEC50–clog P: MEC1 cell line pEC50 minus calculated log P
Description: Defective p53-signalling increases genomic instability and drives tumour progression. A high frequency of p53 inactivation is found in relapsed, treatment-resistant, high risk CLL.[30] […] Owing to resource availability a subset of up to ten of these compounds was prioritised for further investigation. Compounds 2d, 2e, 2j, 2aa, 5a, 5d, 5e, 5f, 5ab and 6b were selected on the basis of reasons including ease of synthetic access, diversity across the chemical space probed and novelty. Those prepared under conditions (i)Scheme 1 (2d, 5a and 6b) were available on a scale and in a purity to directly permit follow-up studies, whereas compounds prepared under conditions (ii)Scheme 1 were prepared on a small scale so were resynthesised. These seven compounds (2e, 2j, 2aa, 5d, 5e, 5f and 5ab) were isolated on >30 mg scale in high purity and progressed to more following studies.
Following the identification of 5f as the most promising drug-like derivative of PTL from the aforementioned parallel/high-throughput screening, the anti-leukaemic activity of 5f was tested once more and compared directly with that of PTL (1) and DMAPT (2a), which serve as comparators and positive controls.
Amine 7 was successfully prepared as follows: 4-Piperidinecarboxylic acid was N-Boc protected to deliver 8 in 92% yield.[43] In order to confidently assign the NMR spectra of compound 8 J-MOD, HSQC and ^1H–^1H COSY were helpful, particularly in establishing that a broad resonance in the proton-decoupled ^13C NMR spectrum, centred on 42.8 ppm, corresponds to the ring-carbons bonded to nitrogen. The carboxylic acid of 8 was converted to the corresponding ethyl-3-keto-propanoate 9 in 24% yield. Conversion of 9 to the N-Boc protected congener 10, was achieved by treatment with acetamidine hydrochloride and potassium carbonate, furnishing 10 in 77% yield. Treatment with trifluoroacetic acid delivered desired compound 7 in 99% yield for the Boc-deprotection step (scale 200 mg, 17% over four linear steps). Thus, evidencing accessibility of amine 7 and with it in hand, it was timely to probe any activity arising from the amine alone. MEC1 sensitivity to 1, 5f and 7 was compared in parallel using the alamarBlue® assay (Fig. 6). […] A pre-peer-reviewed preprint of this article was deposited and may be viewed elsewhere.[44]

hERG K+ channel = hERG K+ channel (Homo sapiens, UniProt Q12809); assay: hERG liability assay, IonWorks patch clamp electrophysiology; format: cell-based; settings: for IC50: eight-point curves, maximum test concentration 100 μM; for inhibition at 100 µM: read-out: hERG inhibition at top test concentration
hERG K+ channel, sequence (Q12809 whole entry): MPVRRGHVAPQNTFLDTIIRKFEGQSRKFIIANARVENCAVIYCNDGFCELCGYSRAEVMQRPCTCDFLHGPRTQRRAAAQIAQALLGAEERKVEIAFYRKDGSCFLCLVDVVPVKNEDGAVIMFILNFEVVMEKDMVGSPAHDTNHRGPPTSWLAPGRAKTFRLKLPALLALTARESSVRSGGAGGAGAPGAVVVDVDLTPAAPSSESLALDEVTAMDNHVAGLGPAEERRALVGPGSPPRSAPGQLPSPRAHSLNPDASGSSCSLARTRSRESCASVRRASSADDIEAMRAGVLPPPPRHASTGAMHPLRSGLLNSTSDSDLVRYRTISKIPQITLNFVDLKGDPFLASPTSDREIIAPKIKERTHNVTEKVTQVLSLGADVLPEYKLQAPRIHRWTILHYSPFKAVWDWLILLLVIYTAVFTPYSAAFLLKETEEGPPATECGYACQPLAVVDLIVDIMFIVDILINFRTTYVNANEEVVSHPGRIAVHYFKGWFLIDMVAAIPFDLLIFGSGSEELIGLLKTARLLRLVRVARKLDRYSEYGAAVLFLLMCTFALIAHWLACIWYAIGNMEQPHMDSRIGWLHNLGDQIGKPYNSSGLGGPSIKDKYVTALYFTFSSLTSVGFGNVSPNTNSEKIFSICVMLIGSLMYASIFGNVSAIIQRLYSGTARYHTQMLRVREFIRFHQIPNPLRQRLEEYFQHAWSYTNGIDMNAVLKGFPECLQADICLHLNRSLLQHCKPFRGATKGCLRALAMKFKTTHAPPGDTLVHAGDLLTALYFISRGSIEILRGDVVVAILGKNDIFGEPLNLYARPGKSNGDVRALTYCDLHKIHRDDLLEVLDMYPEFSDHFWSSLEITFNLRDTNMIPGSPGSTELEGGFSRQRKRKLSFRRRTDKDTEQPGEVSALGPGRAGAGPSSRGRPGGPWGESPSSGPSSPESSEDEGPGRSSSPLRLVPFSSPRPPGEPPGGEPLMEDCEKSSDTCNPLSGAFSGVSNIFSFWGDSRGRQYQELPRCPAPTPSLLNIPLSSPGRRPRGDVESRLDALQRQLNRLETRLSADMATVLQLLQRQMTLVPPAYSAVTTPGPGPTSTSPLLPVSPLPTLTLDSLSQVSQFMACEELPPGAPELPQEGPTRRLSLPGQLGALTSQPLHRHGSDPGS
Method: Early toxicological screening is an important step in derisking drug discovery programmes and is increasingly accessible.[39]
Three PTL derivatives (2a, 5a and 5f) were tested for inhibition of the hERG K^+ channel (against cisapride as a positive control) using IonWorks patch clamp electrophysiology. […] Eight-point concentration-response curves were generated using three-fold serial dilutions from a maximum final test concentration of 100 μM, results are summarised in Fig. S6. ^†

[2] = Stability in aqueous solution, pH 7.4; format: physicochemical; settings: for stability in aqueous solution: result in words; for half-life: pH 7.4, read-out: Stability pH 7.4 T1/2
Method: Compounds 2d, 2e, 2f, 2g, 2j, 2aa, 5a, 5d, 5e, 5f, 5ab and 6b were subjected to in vitro DMPK testing. […] The other three (2d, 2j and 2aa) were not retained for further investigation due to poor stability (T1/2 at pH 7.4: 13, 107 and 76 min, Table 1, entries 1, 3 and 4 respectively). One obvious aspect contributing to observed stability is the propensity for PTL derivatives of this type to undergo a retro-amination (reverse-Michael-type mechanism), indeed this reverse reaction is often claimed as a pro-drug mode of action.[29a],[33] […] It is a reasonable assertion that activity observed for these unstable compounds could well be ascribed to free PTL generated rapidly in the assay.

[3] = Caco-2 permeability assay; format: in vitro ADME; settings: for efflux ratio / Papp A→B / Papp B→A: human; for efflux ratio: Caco-2, pH 7.4; for Papp A→B / Papp B→A: Caco-2; for Papp A→B: pH 7.4, A to B; for Papp B→A: pH 7.4, B to A
[4] = Murine intravenous PK study; format: in vivo; settings: IV 1 mg kg^–1; for clearance / half-life: blood, mouse; for clearance: read-out: Mouse PK (IV) Cl; for half-life: read-out: Mouse PK (IV) T1/2 (converted)
Method: In order to determine 5a and 5f are suitable for use as pharmaceutical agents their pharmacokinetic (PK) parameters were next probed. A murine intravenous PK study of compounds 5a and 5f at 1.0 mg kg^–1 was conducted and their concentrations in blood were measured with time (Fig. 4(a)i and (b)i and Table 2).

[5] = Murine oral (PO) PK study; format: in vivo; settings: for Mouse PK (PO) UC (0-inf) / Cmax: PO 10 mg kg^–1; for Cmax / half-life: in vivo, mouse; for half-life: PO 10 mg kg^–1, as worded in text
Method: The in vivo oral bioavailability of compounds 5a and 5f was compared in a murine PK study at 10 mg kg^–1 (Fig. 4(a)ii and (b)ii and Table 2). In keeping with the intravenous findings, the murine PO half-life of 5f was twice as long as 5a (1.0 versus 0.5 hours, Table 2) and the Cmax attained by 5f was approximately 40% higher than that achieved by 5a (404 versus 283 ng mL^–1). […] Compound 5f was therefore identified as a promising potential new agent with desirable pharmacological properties towards a therapy for drug-resistant CLL.

[6] = Microsomal stability assay (mouse); settings: for microsomal CLint: mouse, liver microsomes; for Mouse microsomal stability: mouse microsomes
[7] = Hepatocyte stability assay (mouse); format: in vitro ADME; settings: mouse hepatocytes; for half-life: read-out: Hepatocyte stability (mouse) T1/2
in vitro = settings: mouse, microsomes
MEC1 CLL cell line [8] = assay: cells; design: alamarBlue (resazurin reduction) cytotoxicity assay in MEC1 CLL cells, n = 5; settings: Homo sapiens, read-out: alamarBlue EC50 (uM) average n=5
Method: Comparison of the activity of 5f with 1 (PTL) and 2a (DMAPT) Biological efforts at University of Birmingham Tissue culture, MEC1 cells were obtained from the American Type Culture Collection (Manassas, VA 20110 USA) and were cultured in RPMI 1640 medium (Sigma-Aldrich, Irvine, UK) with 10% fetal bovine serum (Sigma-Aldrich). The alamarBlue® cytotoxicity assay was conducted by seeding MEC1 cells in triplicate at density of 25000 cells/well in a 96 well plate, final volume of 200 μL. Following treatment with test compound, viability was determined by measuring the reduction of resazurin. Resazurin solution was added to each well at a final concentration of 50 μg/mL and incubated for 3 hours at 37 °C with 5% CO2. Reduction of resazurin was determined by measuring […] at 590 nm using a PheraSTAR FS plate reader (BMG Labtech). Cell viability was calculated as a fraction of the untreated cells after subtracting background fluorescence of resazurin in media only. Data is presented as the mean of five independent experiments and significance was determined by Student’s t-test.

[9] = Homo sapiens, MEC1, MEC1 cells, alamarBlue, direct comparison of 5f with PTL and DMAPT, n = 5, read-out: EC50
[10] = Homo sapiens, MEC1, MEC1 cell line, alamarBlue assay, library screen, read-out: EC50 ave.
[11] = Homo sapiens, MEC1, MEC1 cell line, read-out: pEC50 (converted)
[12] = MEC1 cell line, alamarBlue assay, library screen, read-out: EC50 ave.
[13] = first of two columns headed A to B
[14] = second of two columns headed A to B

Row | Compound | LipE pEC50–clog P (MEC1 CLL cell line [1]) | inhibition at 100 µM (hERG K+ channel; human) | EC50 (MEC1 CLL cell line [1]; [10]) | EC50 (MEC1 CLL cell line [1]; [12]) | efflux ratio [3] | half-life [2] | Hepatocyte stability (mouse) CLint [7] | half-life [7] | Papp A→B [3] | Papp B→A [3] | Mouse microsomal stability [6, 13] | Mouse microsomal stability [6, 14] | further results
1 | C/C1=C\CC[C@@]2(C)O[C@@H]2[C@H]2OC(=O)[C@@H](CN(C)C)[C@@H]2CC1 [DMAPT, dimethyl amino-PTL, reference compound] | 3.19 | 40% | – | – | – | – | – | – | – | – | – | – | EC50 (MEC1 CLL cell line [1]; [9]): 5.6 µM; IC50 (hERG K+ channel): > 100 µM
2 | CC1=CCCC2(C)OC2C2OC(=O)C(CN3CCCC3)C2CC1 (centres unmarked) [Compound 5a] | 2.35 | 45% | < 15 µM | 7.7 µM | 1 | – | – | – | – | – | – | – | EC50 (MEC1 CLL cell line [1]; [11]): 7.76 µM; stability in aqueous solution [2]: greater than two hours; Mouse PK (IV) UC (0-inf) [4]: 80.5 ng h mL^–1; clearance [4]: 207 mL/min/kg; half-life [4]: 0.66 h; Mouse PK (PO) UC (0-inf) [5]: 711 ng h mL^–1; Cmax [5]: 283 ng/mL; half-life [5]: 0.5 h; IC50 (hERG K+ channel): > 100 µM; microsomal CLint [6]: 19 µL/min/mg
3 | C/C1=C\CC[C@@]2(C)O[C@@H]2[C@H]2OC(=O)[C@@H](CN[C@@H](Cc3ccccc3)C(=O)O)[C@@H]2CC1 [C00010] | 3.66 | – | – | 13.5 µM | – | > 2 h | 16.0 μL min^–1 per million cells | 1.47 h | 1.5 ×10⁻⁶ cm/s | 4.2 ×10⁻⁶ cm/s | 9 | 160 | Caco-2 pH 7.4 Efflux ratio [3]: 2.7
4 | C/C1=C\CC[C@@]2(C)O[C@@H]2[C@H]2OC(=O)[C@@H](CN3CCC(c4cc(O)nc(C)n4)CC3)[C@@H]2CC1 [C00008] | 3.69 | – | – | 7.7 µM | – | > 2 h | 22.0 μL min^–1 per million cells | 1.07 h | 2.7 ×10⁻⁶ cm/s | 2.8 ×10⁻⁶ cm/s | 18 | 77 | Caco-2 pH 7.4 Efflux ratio [3]: 1.1
5 | C/C1=C\CC[C@@]2(C)O[C@@H]2[C@H]2OC(=O)[C@@H](CN3CCCC3)[C@@H]2CC1 [C00005] | 2.35 | – | 7.7 µM | – | 1 | > 2 h | 22.0 μL min^–1 per million cells | 1.08 h | 15.9 ×10⁻⁶ cm/s | 16.2 ×10⁻⁶ cm/s | 19 | 75 | –
6 | C/C1=C\CC[C@@]2(C)O[C@@H]2[C@H]2OC(=O)[C@@H](CN3CCC(O)(c4ccccc4)CC3)[C@@H]2CC1 [Compound 5e] | – | – | – | < 15 µM | – | – | – | – | – | – | – | – | microsomal CLint (in vitro): > 100 µL/min/mg
7 | C/C1=C\CC[C@@]2(C)O[C@@H]2[C@H]2OC(=O)[C@@H](CN(C)C)[C@@H]2CC1 [DMAPT, dimethyl amino-PTL] | – | – | – | – | – | – | – | – | – | – | – | – | EC50 (MEC1 CLL cell line [8]): 5.3 µM
8 | C/C1=C\CC[C@@]2(C)O[C@@H]2[C@H]2OC(=O)[C@@H](CN3CCC(c4cc(O)nc(C)n4)CC3)[C@@H]2CC1 [Compound 5f] | 3.69 | 24% | < 15 µM | 7.7 µM | 1.1 | – | – | – | – | – | – | – | EC50 (MEC1 CLL cell line [1]; [11]): 7.76 µM; EC50 (MEC1 CLL cell line [1]; Homo sapiens, MEC1, MEC1 cells, alamarBlue, 1, 5f and 7 compared in parallel, CalcuSyn, read-out: EC50): 4.3 µM; EC50 (MEC1 CLL cell line [1]; [9]): 4.5 µM; effect of NAC pre-treatment on activity (MEC1 CLL cell line [1]; MEC1 cells, pre-treatment with N-acetylcysteine (NAC)): abrogated activity; stability in aqueous solution [2]: greater than two hours; Mouse PK (IV) UC (0-inf) [4]: 289 ng h mL^–1; clearance [4]: 58 mL/min/kg; half-life [4]: 1.14 h; Mouse PK (PO) UC (0-inf) [5]: 1696 ng h mL^–1; Cmax [5]: 404 ng/mL; half-life [5]: 1 h; hERG liability flag (hERG K+ channel): inactive; IC50 (hERG K+ channel; human): > 100 µM; microsomal CLint [6]: 18 µL/min/mg
